The values below come from US8715714B2, “Uses of rare earth elements for hair improvement” (Micellbio Co., Ltd., priority 2006, dated 2014).

Holding throughout (assay type): cell-based
For assay [1], the target named is T1, tyrosinase (Homo sapiens, UniProt P14679).
T1 sequence (P14679 19-529): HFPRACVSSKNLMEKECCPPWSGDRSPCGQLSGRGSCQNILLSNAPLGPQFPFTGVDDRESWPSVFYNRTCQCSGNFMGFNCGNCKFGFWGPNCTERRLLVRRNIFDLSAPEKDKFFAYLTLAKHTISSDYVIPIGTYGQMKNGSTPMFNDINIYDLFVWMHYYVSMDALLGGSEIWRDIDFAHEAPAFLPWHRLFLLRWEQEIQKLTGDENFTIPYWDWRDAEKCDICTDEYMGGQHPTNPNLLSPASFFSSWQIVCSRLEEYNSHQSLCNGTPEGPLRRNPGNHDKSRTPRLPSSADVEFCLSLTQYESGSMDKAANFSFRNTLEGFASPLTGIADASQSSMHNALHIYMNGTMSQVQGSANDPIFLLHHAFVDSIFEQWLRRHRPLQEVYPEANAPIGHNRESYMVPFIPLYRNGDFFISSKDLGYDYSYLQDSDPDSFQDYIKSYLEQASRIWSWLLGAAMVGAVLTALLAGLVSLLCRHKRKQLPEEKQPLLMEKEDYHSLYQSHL
The assay is described as follows: Activity of tyrosinase in Sk-mel-31 cells. To be noted: 10 μg to 1 pg, versus control group, FIG. 7. As for the experimental part: (§1) In order to evaluate the effect of promoting black hair formation, the activity of tyrosinase was measured in Sk-mel-31, a human melanoma cell, and B16F10, a mouse melanoma cell. The cells were cultivated in an incubator at 37° C. (5% CO2 and 60% relative humidity) while maintaining a density of 1×10^6 cells/ml for Sk-mel-31 and 2×10^5 cells/ml for B16F10 in RPMI-1640 medium (containing 1% penicillin-streptomycin and 10% fetal bovine serum). The cells were stabilized in the incubator for 24 hours, and the culture medium containing FBS was replaced by FBS-free RPMI-1640. The cells were treated with mixed rare earth elements of 10 μg, 1 μg, 100 ng, 10 ng, 1 ng, 100 pg, […] and 1 pg, respectively, and individual rare earth elements of 10 ng. In order to measure the activity of tyrosinase, the cells were cultivated for a given time, centrifuged (100×g) for 10 minutes, and harvested. […] The cells were placed in an ice bath for one hour, and centrifuged with 40,000×g at 4° C. for 20 minutes to obtain a cell extract. 130 μl of 5 mM L-DOPA (L-3,4-dihydroxyphenylalanine) and 120 μl of 25 mM MBTH (3-methyl-2-benzothiazolinone hydrazone) were added to 250 μl of an analysis buffer containing 100 mM potassium phosphate (pH 7.1), 4% N,N-dimethylformamide and 0.1% (v/v) Triton X-100, and reacted in a thermostat at 37° C. for 5 minutes, and then, 100 μg of the cell extract was added thereto, and further reacted for 2 hours. Then, 500 μl of 1 M perchloric acid was added thereto and the mixture was centrifuged with 9,000×g at room temperature for 20 minutes. Then, the supernatant was taken and absorbance was measured at 505 nm.

In assay [2] the target is T2, tyrosinase (Mus musculus, UniProt P11344).
T2 sequence (P11344 19-533): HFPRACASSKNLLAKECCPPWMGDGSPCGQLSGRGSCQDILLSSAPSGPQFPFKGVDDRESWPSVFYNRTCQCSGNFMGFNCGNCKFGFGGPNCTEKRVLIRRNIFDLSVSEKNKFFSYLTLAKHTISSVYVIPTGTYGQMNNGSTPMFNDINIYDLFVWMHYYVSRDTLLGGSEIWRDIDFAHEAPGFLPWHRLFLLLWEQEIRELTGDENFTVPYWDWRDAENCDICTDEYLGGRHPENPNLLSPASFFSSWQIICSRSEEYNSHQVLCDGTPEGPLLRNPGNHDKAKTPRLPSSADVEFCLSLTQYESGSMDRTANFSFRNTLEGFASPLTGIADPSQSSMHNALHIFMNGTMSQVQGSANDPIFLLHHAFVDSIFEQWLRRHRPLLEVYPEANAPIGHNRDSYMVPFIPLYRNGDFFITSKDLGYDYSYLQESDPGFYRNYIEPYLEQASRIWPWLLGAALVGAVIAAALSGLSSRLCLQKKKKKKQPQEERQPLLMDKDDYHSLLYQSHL
The experiment in a line: Activity of tyrosinase in B16F10 cells. To be noted: 10 μg to 1 pg, versus control group, FIG. 8. On the procedure:
as §1

In assay [3] the test system is tyrosinase. The experiment in a line: Expression of tyrosinase in Sk-mel-31 cells by Western blotting. To be noted: human melanoma cell line; versus control group; FIG. 9. As for the experimental part:
(§2) Cells were cultivated according to the same process as in Experimental Example 6, and centrifuged (100×g) for 10 minutes to harvest the cells. In order to measure the expression of tyrosinase by Western blotting, 100 μg of the cell extract was resolved on 10% SDS-PAGE, transferred to NC, and then, blocked with TBS containing 5% skim milk. Then, it was reacted with a primary antibody diluted to 1:2,500 (monoclonal anti-tyrosine hydroxylase clone Th-2) and a secondary antibody diluted to 1:5,000 (anti-mouse IgG), respectively, and washed with TBS containing 0.2% Tween-20, and then, photosensitized on an X-ray film using an ECL detection kit. Then, OD values were graphed using an image analysis program of LabWork™ (version 4.4.00.0).

Assay [4] relates to tyrosinase. The assay is described as follows: Expression of tyrosinase in B16F10 cells by Western blotting. The following applies: mouse melanoma cell line; versus control group; FIG. 9. As for the experimental part:
as §2

The test system of assay [5] is Sk-mel-31, a human melanoma cell. The experiment in a line: Melanin production in Sk-mel-31 cells. The following applies: human melanoma cell line; versus control group; FIG. 10. As for the experimental part:
(§3) Cells were cultivated according to the same process as in Experimental Example 6, and centrifuged (100×g) for 10 minutes to harvest the cells. In order to measure the production of melanin, 200 μg of the cell extract was added to 1 N NaOH (total 1 ml), allowed to stand at room temperature for 30 minutes, and then, absorbance was measured at 400 nm.
(§4) In order to measure the production of melanin, the cells were cultivated and harvested according to the same process as that of Experimental Example 6, and the production of melanin was measured according to the same process as that of Experimental Example 8.

The test system of assay [6] is B16F10, a mouse melanoma cell. The assay is described as follows: Melanin production in B16F10 cells. The following applies: mouse melanoma cell line; versus control group; FIG. 10. On the procedure: as §3, §4

With `[Tb]` [Tb, terbium], the tyrosinase activity result on tyrosinase [1] and on tyrosinase [2] was “substantially the same effect as mixed rare earth elements” each time. The expression of tyrosinase result in the assay with tyrosinase [3] and in the assay with tyrosinase [4] was “substantially the same effect” in each case. For the same molecule, the melanin production result in assay [5] and in assay [6] was “substantially the same effect” each time.

Take `[Yb]` [Yb, ytterbium]: the tyrosinase activity result on tyrosinase [1] and on tyrosinase [2] was “substantially the same effect as mixed rare earth elements” in each case. Besides, the expression of tyrosinase entry in the assay on tyrosinase [3] and in the assay on tyrosinase [4] was “substantially the same effect” throughout. Besides, the melanin production entry in assay [5] and in assay [6] was “substantially the same effect” in each case.

For `[Tm]` [Tm, thulium], the tyrosinase activity result on tyrosinase [1] and at tyrosinase [2] was “substantially the same effect as mixed rare earth elements” throughout. Also, the expression of tyrosinase entry in the assay on tyrosinase [3] and in the assay with tyrosinase [4] was “substantially the same effect” throughout. Besides, the melanin production result in assay [5] and in assay [6] was “substantially the same effect” throughout.

Take `[Pr]` [Pr, praseodymium]: the tyrosinase activity result on tyrosinase [1] and on tyrosinase [2] was “substantially the same effect as mixed rare earth elements” in each case. In addition, the expression of tyrosinase result with tyrosinase [3] and in the assay on tyrosinase [4] was “substantially the same effect” in each case. Besides, the melanin production result in assay [5] and in assay [6] was “substantially the same effect” each time.

As to `[Pm]` [Pm, promethium], the tyrosinase activity entry on tyrosinase [1] and on tyrosinase [2] was “substantially the same effect as mixed rare earth elements” each time. The expression of tyrosinase entry in the assay on tyrosinase [3] and with tyrosinase [4] was “substantially the same effect” in each case. Also, the melanin production result in assay [5] and in assay [6] was “substantially the same effect” each time.

`[Sc]` [Sc, scandium]: the tyrosinase activity entry on tyrosinase [1] and at tyrosinase [2] was “substantially the same effect as mixed rare earth elements” in each case. Besides, the expression of tyrosinase result with tyrosinase [3] and in the assay with tyrosinase [4] was “substantially the same effect” throughout. The melanin production result in assay [5] and in assay [6] was “substantially the same effect” each time.

In the case of `[Ho]` [Ho, holmium], the tyrosinase activity result on tyrosinase [1] and at tyrosinase [2] was “substantially the same effect as mixed rare earth elements” throughout. For the same molecule, the expression of tyrosinase result in the assay with tyrosinase [3] and in the assay with tyrosinase [4] was “substantially the same effect” in each case. Also, the melanin production result in assay [5] and in assay [6] was “substantially the same effect” each time.

For the molecule `[Y]` [Y, yttrium], the tyrosinase activity entry at tyrosinase [1] and at tyrosinase [2] was “substantially the same effect as mixed rare earth elements” each time. Further, the expression of tyrosinase result in the assay with tyrosinase [3] and in the assay on tyrosinase [4] was “substantially the same effect” in each case. Besides, the melanin production entry in assay [5] and in assay [6] was “substantially the same effect” in each case.

Regarding `[Dy]` [Dy, dysprosium], the tyrosinase activity entry at tyrosinase [1] and on tyrosinase [2] was “substantially the same effect as mixed rare earth elements” each time. Besides, the expression of tyrosinase result with tyrosinase [3] and in the assay with tyrosinase [4] was “substantially the same effect” in each case. The melanin production result in assay [5] and in assay [6] was “substantially the same effect” in each case.

On to `[Er]` [Er, erbium], for which the tyrosinase activity entry on tyrosinase [1] and at tyrosinase [2] was “substantially the same effect as mixed rare earth elements” in each case. Also, the expression of tyrosinase entry in the assay on tyrosinase [3] and with tyrosinase [4] was “substantially the same effect” throughout. Further, the melanin production result in assay [5] and in assay [6] was “substantially the same effect” in each case.
